{
  "source": "patent EP0258006A2",
  "about": "“Monoclonal antibodies reactive with chlorinated dibenzo-p-dioxins and method of preparing and using same” (WE[…] CORPORATION, priority 1986, dated 1988)",
  "key": {"[1]": {"system": "ATCC HB 9183 antibody (monoclonal antibody, IgG1, produced by hybridoma ATCC HB 9183)", "experiment": "competitive inhibition enzyme immunoassay (CIEIA) with ATCC HB 9183 culture supernatant", "assay_type": "binding, BALB/c mice", "conditions": "1:5 dilution of culture supernatant preincubated 1 hour at room temperature with various concentrations of TCDD; linear curve in Figure 3"}, "[2]": {"system": "monoclonal antibodies reactive with 2,3,7,8-TCDD in hybridoma culture supernatants (the 6 of 384 cultures positive by CIEIA)", "experiment": "competitive inhibition enzyme immunoassay (CIEIA) of hybridoma culture supernatants", "assay_type": "binding, BALB/c mice", "conditions": "culture supernatants preincubated with 1.0 × 10⁻⁴ M 2,3,7,8-TCDD; plates coated with BSA-adipamidoyl,3,7,8-trichlorodibenzo-p-dioxin conjugate; 6 positive cultures; 100 µM"}},
  "data": [
    {"smiles": "Clc1cc2c(cc1Cl)Oc1cc(Cl)c(Cl)cc1O2", "note": "[2,3,7,8-TCDD, 2,3,7,8-tetrachlorodibenzo-p-dioxin]", "values": [
      {"measurement": "binding of antibody to free TCDD (CIEIA, Figure 3)", "setting": "[1]", "result": "binds directly to free TCDD"},
      {"measurement": "inhibition of antibody binding to the solid phase-bound conjugate", "setting": "[2]", "result": "at least 50%"}
    ]}
  ]
}
